Results on 3 compounds are retold here after patent US20230374505A1, “Human XIST Antisense Oligonucleotides for X Reactivation Therapy” (The General Hospital Corporation, priority 2020, published 2023).

For data set [1], the system named is cell culture. Briefly: Tolerable Aza concentration in cell culture. The data set is classed as cell-based.
For data set [2] the following is noted: in plasma; cited from earlier work.
Data set [3] deals with Xi reactivation in the brain. Briefly: Aza/decitabine three pulse treatment, Xi reactivation in the brain. The data set is classed as in vivo, mouse. The note with it: three short pulses delivered systemically; after two weeks. From the text: ASO drugs are generally more specific and have the advantage that information on pharmacokinetics and toxicity studies for chemically similar ASOs is transferable and cumulative. Thus, ASOs may have a more favorable path to regulatory approval. Small molecules generally have lower selectivity and may face steeper hurdles in the approval process within the US Food and Drug Administration (FDA). By mixing modalities, our approach may potentially anticipate a more streamlined approach to FDA approval. […] Unlike LNA-based ASOs which have tissue half-lives of several weeks (Wahlestedt C et al. Potent and nontoxic antisense oligonucleotides containing locked nucleic acids. Proc Natl Acad Sci USA. 2000; 97:5633-5638), Aza is known to have a very short half-life (t1/2<1h in plasma) (Welch J S et al. TP53 and decitabine in acute myeloid leukemia and myelodysplastic syndromes. N Engl J Med. 2016; 375:2023-2036). However, once DNA is demethylated, the state may be stable (Kordasiewicz H B et al. Sustained therapeutic reversal of Huntington's disease by transient repression of huntingtin synthesis. Neuron. 2012; 74:1031-1044). Future work will determine the duration of the effect and whether periodic boosters of either Aza or ASO might be necessary to maintain the reactivation.
Decitabine was administered to the XIST2lox, Nestin-Cre F2 generation, by IP injection at 5 weeks old. […]

The subject of data set [4] is human CDKL5 patient fibroblast line. Description: Toxicity of nanaomycin to CDKL5 patient fibroblasts. The data set is classed as cell-based. The note with it: added every 2 days, 5 days treatment; data not shown. The protocol: Experiments were also conducted to test Xi reactivation in human CDKL5 patient's fibroblast with XIST ASO-6B and DNMT3 inhibitor, Nanaomycin, co-treatment. A human CDKL5 patient fibroblast line carrying mutation on the Xa was treated with an ASO to XIST and a DNMT3i, nanaomycin A. After 5 days of treatment with 20 nM XIST ASO-6B (added once at day 0; lipofectamine transfection) and 25 nM-1 uM nanaomycin A (added every 2 days; days 0, 2, and 4), cells were harvested for qPCR analysis (FIG. 10A). Nanaomycin is very toxic, and the cells were dead in concentration above 250 nM (data not shown).

The subject of data set [5] is CDKL5 wt allele (Xi). Description: CDKL5 wt allele reactivation in human CDKL5 patient fibroblasts, allele-specific qPCR. In kind it is cell-based. On the procedure: FIGS. 6A-6B. XIST ASO (ASO-6B) and DNMTi co-treatment in CDKL5 patient fibroblast. (A) A schematic of treatment of a human CDKL5 patient fibroblast line carrying mutation on the Xa. After 3 days of treatment with 100 nM XIST ASOs (lipofectamine transfection) and 0.5 uM Aza (added every 2 days), harvested cells underwent qPCR analysis. […] CDKL5 wt reactivation was normalized to CDKL5mut expression from the Xa chromosome, normalized to RPL13a.
FIGS. 8A-8C. Xi reactivation in human CDKL5 patient's fibroblast with XIST ASO+/−DNMTi (Decitabine, Azacitidine, RG-108). (A) A human CDKL5 patient fibroblast line carrying mutation on the Xa was treated with ASOs to XIST and three DNMTi. On day 0, cells were treated with 20 nM of XIST ASO-6B, and 1 uM of each DNMTi every 2 days. On day 7, cells were harvested for qPCR analysis. […] XIST expression was relative to untreated levels, normalized to RPL13a. […] CDKL5 wt reactivation was normalized to CDKL5mut expression from the Xa chromosome.
FIGS. 9A-9C. Xi reactivation in human CDKL5 patient's fibroblast with XIST ASO-6B and DNMT inhibitor (SGI-1027) co-treatment. (A) A human CDKL5 patient fibroblast line carrying mutation on the Xa was treated with an ASO to XIST and an DNMTi. […]

Data set [6] deals with XIST. Description: XIST expression in CDKL5 patient fibroblasts after XIST ASO with or without DNMTi, qPCR. In kind it is cell-based, human. On the procedure:
FIGS. 8A-8C. Xi reactivation in human CDKL5 patient's fibroblast with XIST ASO+/−DNMTi (Decitabine, Azacitidine, RG-108). (A) A human CDKL5 patient fibroblast line carrying mutation on the Xa was treated with ASOs to XIST and three DNMTi. On day 0, cells were treated with 20 nM of XIST ASO-6B, and 1 uM of each DNMTi every 2 days. […] XIST expression was relative to untreated levels, normalized to RPL13a. […] CDKL5 wt reactivation was normalized to CDKL5mut expression from the Xa chromosome.
FIGS. 11A-11B. Triplicate experiment showing Xi reactivation in human CDKL5 patient's fibroblast with XIST ASO+/−DNMTi (Decitabine, Azacitidine, RG-108). […] CDKL5 wt reactivation was normalized to CDKL5mut expression from the Xa chromosome. Data shown are the average of three experiments; error bars are standard deviation.
RNA was isolated by Trizol (Life Technologies) extraction (tissues were snap frozen in liquid nitrogen and ground with pestle and mortar or put in Trizol and homogenized using a Qiagen TissueLyser), treated with TurboDNAse for 30 min at 37° C. […] The relative efficiency of the reactivations was calculated by comparing to GAPDH or TBP RNA as the internal control in mouse experiment. The relative efficiency of the reactivations was calculated by comparing to RPL13a as the internal control in human cells. […]

As for `Nc1ncn([C@H]2C[C@H](O)[C@@H](CO)O2)c(=O)n1` [Aza, 5-aza-2′-deoxycytidine], the “tolerable concentration in cell culture” value in data set [1] amounted to 0.5 µM. Moreover, the t1/2 in data set [2] is recorded as less than 1 h. In addition, the “Xi reactivation in the brain” value in data set [3] is recorded as “sufficient to induce Xi reactivation”.

Consider `CC1OC(CC(=O)O)CC2=C1C(=O)c1c(O)cccc1C2=O` (centres unmarked) [Nanaomycin, nanaomycin A], for which the “concentration above which the cells were dead” value in data set [4] is listed as “above 250 nM”.

Consider “ASO 6B: XIST ASO AGAAGTCTGGCACATCTGTG, SEQ ID NO:11 (LNA-flanked DNA gapmer, wing lengths and linkages not given here, further chemistry not given here)”, for which the CDKL5 reactivation in data set [5] (20 nM ASO 6B at day 0, 1 uM Decitabine, 0.5 uM Azacitidine or 1 uM RG-108 at days 0 and 2, harvested Day 4, average of three experiments (FIG. 11B)) was 0.13%; in data set [5] (20 nM ASO-6B at day 0, 1 uM DNMTi every 2 days, harvested day 7 (FIG. 8C)), 0.7%. For the same compound, the XIST expression entry in data set [6] (20 nM ASO-6B with and without 1 uM DNMTi, 7 days (FIG. 8B)) is recorded as “decreased”; in data set [6] (20 nM ASO-6B with or without DNMTi, 4 days (FIG. 11A)), “decreased”.
